Experimental data taken from PubChem BioAssay AID1996.
In brackets after ≈: the same amount, converted by molar mass.

Conditions: buffer; pH 7.4; 200.0 µM

SMILES	solubility kinetic [µg/mL]
O=C(Nc1ccc(F)cc1)Nc1cccnc1Cl	13.8 (≈ 51.9 µM)
Cc1cc(=O)n2cccc(O)c2n1.Cl	21.7
COCCCNC(=S)N1CCC(NC(=O)c2ccco2)CC1	> 48.8
COc1ccccc1CCC(=O)N(C)CC(=O)Nc1ccc(F)cc1	20.4 (≈ 59.2 µM)
Cc1cccc(OCC(=O)Nc2ccc3oc(=O)ccc3c2)c1	3.3 (≈ 10.7 µM)
C[n+]1ccccc1/C=N/O.[I-]	> 39.6
Cc1ccc2[nH]c(=O)cc(C(=O)OCC(=O)c3ccc(F)cc3)c2c1	1.5 (≈ 4.42 µM)
O=C(O)C(=O)O.O=[N+]([O-])c1ccccc1CNC1CCCCCC1	> 50.8
COc1ccc(NC(=O)NCc2ccc(Cl)cc2)cc1	0.3 (≈ 1.03 µM)
Cc1cc(C)c2nc(NC(=O)c3ccco3)sc2c1	0.4 (≈ 1.47 µM)
CC(=O)Nc1ccc(SCC(=O)NC(=O)c2ccc(S(=O)(=O)N(C)C)cc2)cc1	> 65.3
O=C(CN1C(=O)NC2(CCCC2)C1=O)Nc1ccc(F)c(Cl)c1	> 51
CCC(=O)N(CCC(c1ccc(C)cc1)c1ccco1)Cc1ccco1 (centres undefined)	45.6 (≈ 130 µM)
CC(=O)c1ccc(NC(=S)Nc2cccc3ccccc23)cc1	10.6 (≈ 33.1 µM)
Nc1ccc(C(=O)O)cc1	> 20.6
CSc1ccc(Cl)c(C(=O)Nc2cc(S(=O)(=O)N3CCOCC3)ccc2N2CCOCC2)c1	3.4 (≈ 6.64 µM)
Cc1ccc(C(=O)Nc2ccc(N3CCN(C)CC3)cc2)c(Cl)c1	> 51.6
Cc1ccc(NC(=O)C2CCCN2C(=O)NC2CCCCC2)cc1F (centres undefined)	0.9 (≈ 2.59 µM)
COc1ccccc1NC1=C(Cl)C(=O)OC1OC(=O)c1ccco1 (centres undefined)	47.3 (≈ 135 µM)
Cc1ccc(NCc2ccc(O)c3ncccc23)cc1	5 (≈ 18.9 µM)
O=[N+]([O-])c1ccc(Cl)c(CN2CCN(c3ncccn3)CC2)c1	35.1 (≈ 105 µM)

SMILES	solubility kinetic [µg/mL]
Cc1ccccc1NCN1C(=O)C2CCC(C)(C1=O)C2(C)C (centres undefined)	30.6 (≈ 102 µM)
COc1ccc2nc(NC(=O)NC3CCCCC3)sc2c1	< 0.2
CC(=O)c1cccc(NS(=O)(=O)N2CCOCC2)c1	> 42.6
CCc1ccc(S(=O)(=O)Nc2ccc(Cl)cn2)cc1	8.3 (≈ 28 µM)
O=C(NNC(=O)c1ccc([N+](=O)[O-])cc1)c1ccc(NS(=O)(=O)c2cccs2)cc1	> 67
O=C(NS(=O)(=O)Nc1ccccn1)c1c[nH]c2ccccc12	> 47.4
CC(=O)c1ccc(Nc2nc(-c3cccnc3)cs2)cc1	0.9 (≈ 3.05 µM)
CCC(=O)c1cn(CC(=O)Nc2ccccc2Cl)c2ccccc12	0.8 (≈ 2.35 µM)
Cc1ccc(C)c(-n2ccnc2SCC(N)=O)c1	> 39.2
COc1cccc(NC(=O)Nc2cc(C)on2)c1	> 37.1
CC(Oc1ccccc1)C(=O)N1CCc2ccccc2C1 (centres undefined)	> 42.2
COc1cc2cc(C(=O)NCCc3ccccc3)[nH]c2cc1OC	1 (≈ 3.08 µM)
CCOc1cc(C=O)ccc1OCC(N)=O	> 33.5
CC1CCCC(NC(=O)COC(=O)c2ccc3c(c2)OCCO3)C1C (centres undefined)	5.3 (≈ 15.3 µM)
CCc1ccc(OCC(=O)N2CC(C(N)=O)Oc3ccccc32)cc1 (centres undefined)	45.1 (≈ 132 µM)
Cc1cccc(C)c1NC(=O)COC(=O)c1cccnc1	> 42.6
CCc1ccc(Nc2nc(C)cc(C)c2C(N)=O)cc1	> 40.4
CCOc1ccccc1C(=O)N[C@H](C(=O)OCc1csc(CC(=O)Nc2ccc(C)cc2)n1)C(C)C	6.9 (≈ 13.5 µM)
O=[N+]([O-])c1cc(S(=O)(=O)NCCN2CCOCC2)ccc1Cl	> 52.5
Cc1cc(C(=O)N2CCCC(Nc3ccc(F)cc3)C2)n(C)n1 (centres undefined)	> 47.5
Cc1ccc(NC(=O)CNC(=O)c2ccco2)nc1	> 38.9

SMILES	solubility kinetic [µg/mL]
O=C(COC(=O)COc1ccccc1)Nc1ccc(Cl)cn1	13.3 (≈ 41.5 µM)
Cc1ccccc1C(=O)N1CCC(C(=O)N2CCN(Cc3ccc4c(c3)OCO4)CC2)CC1	59.1 (≈ 131 µM)
Fc1ccc(CNC(=S)NCc2ccc(F)cc2)cc1	6.4 (≈ 21.9 µM)
O=C(CCc1nc(-c2ccccc2)no1)Nc1cccnc1	> 44.1
CC(=O)c1c(O)c2cccc3c2n(c1=O)CCC3	> 36.5
Br.O=C(CN1CCCCC1)c1ccccc1F	> 45.3
O=C(Cc1ccccc1)NCCc1c[nH]c2ccccc12.O=C(O)C(=O)O	47.8
Cc1ccc(CNC(=O)c2cccnc2Sc2cccc(Cl)c2)cc1	0.5 (≈ 1.36 µM)
O=C(CSc1nnc(-c2ccncc2)o1)N1CCCC1	> 43.6
Cc1ccc(Nc2ncc3c(n2)CC(C)CC3=O)c(C)c1 (centres undefined)	> 42.2
Nc1nc(SCC(=O)Nc2ccc([N+](=O)[O-])cc2)n[nH]1	> 44.1
O=C(Nc1ccc(N2CCCC2)cc1)c1ccc(Cl)cc1Cl	0.5 (≈ 1.49 µM)
O=C(Cc1cccs1)NCc1cccc(Cl)c1	> 39.9
COc1ccc(C(=O)NCCNc2ccccc2[N+](=O)[O-])cc1	36.3 (≈ 115 µM)
COc1ccc(OC)c(N/C(C)=C/C(=O)c2ccncc2)c1	36.9 (≈ 124 µM)
COc1ccccc1/C=C(\NC(=O)c1ccccc1)C(=O)NCc1ccco1	7 (≈ 18.6 µM)
CCN1CCN(CCC(=O)Nc2cc(OC)cc(OC)c2)CC1	35.2 (≈ 110 µM)
Cc1ccc(C(=O)OCC(=O)Nc2ccccc2Cl)c(O)c1	0.8 (≈ 2.5 µM)
CN(C(=O)c1cccs1)C1(C)CCS(=O)(=O)C1 (centres undefined)	> 41
COc1cc(Cl)c(C)cc1NC(=O)CCN1C(=O)NC(C)(C)C1=O	> 53.1
CC(=NCc1ccc2c(c1)OCO2)c1c(O)n(-c2ccccc2)c(=O)[nH]c1=O	6.6 (≈ 17.4 µM)

SMILES	solubility kinetic [µg/mL]
CCOc1ccc(/C=C/c2nc(C#N)c(NCCCOC)o2)cc1	3.4 (≈ 10.4 µM)
Cn1cccc1/C=N\NC(=O)c1cncc(Br)c1	> 46.1
O=C(Nc1ccc(O)cc1)c1ccc(NC(=O)C2CCCO2)cc1 (centres undefined)	> 49
CCOc1ncccc1C(=O)OCC(=O)c1ccc(OC)c(OC)c1	> 51.8
O=C(COC(=O)C12CC3CC(CC(Cl)(C3)C1)C2)Nc1ccccc1	5.9 (≈ 17 µM)
Cc1ccc(NC(=O)Nc2cccc(F)c2)nc1	1.3 (≈ 5.3 µM)
CCn1cc(S(=O)(=O)NCCc2ccc(F)cc2)cn1	> 44.6
O=c1c2ccccc2nc(/C=C/c2c[nH]c3ccccc23)n1CCO	8.6 (≈ 26 µM)
O=C(O)CSc1nc(-c2ccccc2)nc2c1CCCC2	> 45.1
COc1cccc(NC(=O)Nc2ccc3nc(C)c(C)nc3c2)c1	0.9 (≈ 2.79 µM)
COc1ccc(-c2cc(=O)[nH]c(N3CCN(Cc4ccccc4)CC3)n2)cc1	0.8 (≈ 2.13 µM)
CC(C)S(=O)(=O)C/C(N)=N/OS(=O)(=O)c1ccc(Cl)cc1	42.5 (≈ 120 µM)
COc1cc(-c2noc(C)n2)cc(OC)c1OC	35.7 (≈ 143 µM)
COc1ccc(OC)c(-c2cc(C(=O)Nc3ccccc3C(N)=O)c3ccccc3n2)c1	5.9 (≈ 13.8 µM)
O=C(Nc1ccc(Cl)cc1)Nc1ccon1	26.7 (≈ 112 µM)
CCOC(=O)N1CCN(CC(=O)c2ccc(O)c(C)c2O)CC1	40.7 (≈ 126 µM)
O=C(COc1ccc2c(c1)CCC2)Nc1ccccn1	14.2 (≈ 52.9 µM)
O=C(Nc1ccc(N2C(=O)CCC2=O)cc1Cl)c1cccs1	> 50.2
O=C(Cc1ccccc1Cl)NCc1cccnc1	> 39.1
COc1cc(CC(=O)OCC(=O)N(C)C2CCCCC2)cc(OC)c1OC	52.4 (≈ 138 µM)
CN(C)S(=O)(=O)c1ccc(Cl)c(NC(=O)CNC2(C)CCS(=O)(=O)C2)c1 (centres undefined)	> 63.6
